Measurements reported in patent publication US9090589B2, “Specific nNOS inhibitors for the therapy and prevention of human melanoma” (priority 2011, dated 2015).
Entries after “also recorded” stand apart in the source; their conditions may differ. Where two headings read alike, the source gives them in different places.

Key:
eNOS [1] = target: T1, eNOS (Bos taurus (Bovine), UniProt P29473); conditions: read-out: Ki eNOS; recombinant isozyme
nNOS [2] = assay: biochemical; conditions: for Selectivity nNOS/eNOS: Ki(eNOS)/Ki(nNOS); for Selectivity nNOS/iNOS: Ki(iNOS)/Ki(nNOS)
nNOS [3] = target: nNOS (Rattus norvegicus (Rat), UniProt P29476); assay: biochemical; conditions: recombinant isozyme
iNOS [4] = target: T2, iNOS (Mus musculus (Mouse), UniProt P29477); conditions: read-out: Ki iNOS; recombinant isozyme
melanoma A375 cells = assay: L-arginine-induced intracellular NO, Griess reagent; assay type: cell-based, human
Procedure: (§1) Measurements of intracellular Nitric Oxide levels and NOS activities: NO was measured as nitrite by interaction with Griess reagent (Enzo Life Sciences, Lausen, Switzerland). […] The NOS activity was analyzed by Ultrasensitive Colorimetric Assay according to manufacturer's protocol (Oxford Biomedical Research, Inc., Oxford, Mich.).

wm3211 = assay: Cytotoxicity in melanoma cell line; assay type: cell-based; conditions: Homo sapiens
Source text: (§2) Proliferation analysis: MTT Colorimetric Assay was utilized for cell proliferation analysis according to manufacturer's protocol (Vybrant®, Molecular Probes, Inc. Eugene, Oreg.).

iNOS [5] = target: T2, iNOS; assay: biochemical
eNOS [6] = target: T1, eNOS; assay: biochemical
Sk-Mel28 = assay: Cytotoxicity in melanoma cell line; assay type: cell-based; conditions: Homo sapiens, SK-MEL-28
Source text: as §2

Lu1205 cells = assay: Total NOS activity, Ultrasensitive Colorimetric Assay; assay type: cell-based, human
Procedure: as §1

[7] = tested on: nNOS expression in melanoma cells; assay: nNOS expression by immunoblotting in melanoma cells; assay type: cell-based, human; conditions: for induction of nNOS by DETA/NO or UVB radiation: as low as 1 μM
Procedure: Cell Protein Extraction and Western Blot Analysis: Melanoma cells were collected and lysed as described previously. […] Measurement of signal intensity on membranes was done using an imaging densitometer with Multi-Analyst software (Bio-Rad). All data were expressed as fold change of the control based on the calculation of density values of the specific protein bands standardized by α-Tubulin/actin. UV radiation and cell treatment: Cells were grown to about 70% confluence and media was removed completely for UV radiation. For UVA radiation, 5 ml of PBS was added to one 10-cm dish of cells and ice cubes were placed next to dishes for absorbing the heat generated by UVA. […] The UV intensity was measured by a radiometer with proper probes. Fresh media was added back after radiation and cells were returned to 37° C. incubator for recovering.

human melanoma cells = assay: MTT proliferation of melanoma cells under DETA/NO stress; assay type: cell-based
Source text: as §2

[8] = tested on: metastatic melanoma A375 cells in skin equivalents; assay: 3-dimensional skin reconstructs, melanoma growth; assay type: cell-based, human; conditions: 2 weeks
Procedure: 3-Dimensional Skin Reconstructs: A 3-dimensional skin reconstruct was achieved using a literature method. […] Once the epidermus is adhered to the dermal layer, skin equivalents are then lifted to the air liquid interface to allow keratinocytes differentiation. […] By the end of experiments, the skin equivalents were fixed and stained with H&E for pathological evaluation. S-100 staining as a melanocyte biomarker was performed to visualize and confirm the lesion of melanoma.

[9] = tested on: metastatic melanoma cells; assay: Matrigel invasion assay; assay type: cell-based, human
Procedure: Invasion Assay: The invasiveness of melanoma cells was assessed on the basis of invasion of cells through Matrigel-coated membrane (BD Biosciences). Briefly, melanoma cells were collected and reconstituted in serum-free medium. Prepared cells were added to the upper Matrigel-coated insert. After 20 hr incubation, cells were fixed and stained with hematoxylin. Membranes were visualized microscopically and the invading cells on each of triplicate membranes were counted and averaged for 20 random fields.

[10] = tested on: metastatic melanoma A375 cells; assay: Adhesion of A375 cells to fibroblast monolayer; assay type: cell-based, human; conditions: 2 μM, 1 hour
Procedure: Non-adhesive cells were washed away by PBS and MTT reagent was utilized to determine the relative amount of cells that adhered to FB cells, which is calculated as: relative adhesive cell OD value=(sample OD value (adhesive melanoma cells+FB)−negative control OD value (FB only)). The mean changes of OD values with treatments (control is set as 0) represented the relative effects of compounds on melanoma adhesion.

[11] = tested on: nNOS expression in normal melanocytes; assay: nNOS expression in normal melanocytes; assay type: cell-based, human; conditions: DETA/NO
Source text: Cell Protein Extraction and Western Blot Analysis: Melanoma cells were collected and lysed as described previously. […] Measurement of signal intensity on membranes was done using an imaging densitometer with Multi-Analyst software (Bio-Rad). All data were expressed as fold change of the control based on the calculation of density values of the specific protein bands standardized by α-Tubulin/actin.

[12] = tested on: human primary melanocytes; assay: MTT proliferation of primary melanocytes; assay type: cell-based; conditions: 12-day period, DETA/NO exposure
Source text: as §2

iNOS [13] = target: T3, iNOS (Homo sapiens (Human), UniProt P35228); assay type: biochemical
nNOS [14] = target: nNOS (Homo sapiens (Human), UniProt P29475); conditions: cited from earlier work
iNOS [15] = target: T3, iNOS; conditions: cited from earlier work

## Cc1cc(N)nc(C[C@H]2CNC[C@H]2NCCNCc2cccc(C(F)(F)F)c2)c1 [Compound 3, N^1-((3S,4S)-4-((6-amino-4-methylpyridin-2-yl)methyl)pyrrolidin-3-yl)-N^2-(3-(trifluoromethyl)benzyl)ethane-1,2-diamine]
eNOS [1]
  Ki: 116 µM
nNOS [2]
  Selectivity nNOS/eNOS: 552.4
  Selectivity nNOS/iNOS: 64.8
nNOS [3]
  Ki: 210 nM
iNOS [4]
  Ki: 13.6 µM

## COc1cc(/C=C/C(=O)CC(=O)/C=C/c2ccc(O)c(OC)c2)ccc1O [curcumin]
Melanoma A375 cells; up to 50 μM
  L-arginine-induced NO generation: not affected at all; also recorded: failed to inhibit

## Oc1ccc(C=Cc2cc(O)cc(O)c2)cc1 [resveratrol]
Melanoma A375 cells; up to 50 μM
  L-arginine-induced NO generation: not affected at all; also recorded: failed to inhibit

## Nc1cccc(C[C@H]2CN(Cc3ccccc3)C[C@H]2NCCCc2ccccc2)n1 [Compound 2, 6-(((3S,4S)-1-benzyl-4-((3-phenylpropyl)amino)pyrrolidin-3-yl)methyl)pyridin-2-amine]
wm3211
  IC50: 5 µM
iNOS [5]
  Ki: 609 µM
nNOS [2]
  Selectivity nNOS/eNOS: 2.5
  Selectivity nNOS/iNOS: 12.7
nNOS [3]
  Ki: 48000 nM
eNOS [6]
  Ki: 122 µM
Sk-Mel28
  IC50: 3.5 µM

## Cc1cc(N)nc(C[C@H]2CNC[C@@H]2NCCNCCc2cccc(F)c2)c1 [Compound 8, N^1-((3R,4S)-4-((6-amino-4-methylpyridin-2-yl)methyl)pyrrolidin-3-yl)-N^2-(3-fluorophenethyl)ethane-1,2-diamine]
Lu1205 cells; 1 μM
  NOS activity in metastatic Lu1205 cells: significantly reduced total NOS activities; also recorded: effectively inhibited
Melanoma A375 cells; as low as 1 μM, listed as cpd 8
  L-arginine-induced NO generation: inhibited; also recorded: efficiently inhibited NO production; also recorded: reduced
[7]; listed as Cpd 8
  induction of nNOS by DETA/NO or UVB radiation: effectively inhibited the induction of nNOS
[7]; listed as cpd 8
  induction of nNOS by DETA/NO or UVB radiation: inhibited nNOS expression
[7]; up to 200 μM
  basal nNOS levels of melanoma cells: does not affect basal nNOS levels
Human melanoma cells; co-treatment, after 3 days
  DETA/NO-stimulated proliferation: significantly reversed
[8]; 2 μM, L-arginine 2.87 mM
  melanoma overgrowth induced by L-arginine in skin reconstruct: reversed the overgrowth induced by L-arginine
[9]; A375 cells, co-treatment with L-arginine 2.87 mM
  invasion potential elevated by L-arginine: inhibited; also recorded: efficiently reversed
[9]; co-treatment with DETA/NO
  cell invasion potential elevated by DETA/NO: reversed
[10]
  L-arginine-stimulated adhesion of A375 cells to fibroblast cells: most potent inhibition of the relative adhesion

## Cc1cc(N)nc(C[C@H]2CNC[C@H]2NCCN)c1 [Compound 5, N^1-((3S,4S)-4-((6-amino-4-methylpyridin-2-yl)methyl)pyrrolidin-3-yl)ethane-1,2-diamine]
nNOS [3]
  Ki: 98 nM
iNOS [4]
  Ki: 5.84 µM

## N=C(N)NCCC[C@H](N)C(=O)O [L-arginine, reference compound]
Melanoma A375 cells; incubation with L-arginine, A375 cells
  intracellular NO level: increased
[8]; 2.87 mM
  melanoma growth in 3D skin equivalents: significantly promoted melanoma growth
[9]; 2.87 mM
  invasion potential of metastatic melanoma cells: markedly enhanced the invasion potential

## NCCN(CCN)[N+]([O-])=NO [DETA/NO, 1-[N-(2-Aminoethyl)-N-(2-ammonioethyl)amino]diazen-1-ium-1,2-diolate, reference compound]
[11]
  nNOS induction in melanocytes: not evident
[12]
  cell proliferation of primary melanocytes: significantly stimulated
Human melanoma cells; 100 μM
  proliferation of metastatic Lu1205 and SK-Mel28 cells: Marked stimulation of proliferation
  proliferation of primary melanoma wm3211 cells: not significant

## Cl.Cl.Cl.NCCCCNCCCN [Spermidine trihydrochloride (ST), Spermidine trihydrochloride, reference compound]
Lu1205 cells; 10 μM
  NOS activity in metastatic Lu1205 cells: comparable inhibition of NOS activity

## N=C(N)SCCc1cccc(CCSC(=N)N)c1 [PBIT, 1,3-phenylene-bis(1,2-ethanediyl)bisisothiourea]
iNOS [13]
  iNOS selectivity over nNOS: 1.5 fold
nNOS [14]
  Ki: 29 nM
iNOS [15]
  Ki: 19 nM
